PMC7588595, “Small-molecule active pharmaceutical ingredients of approved cancer therapeutics inhibit human aspartate/asparagine-β-hydroxylase” (Bioorganic & Medicinal Chemistry, 2020)
Counter-ions that a name gives are not always drawn. Like-named read-outs stand apart in the source and are kept apart here.

Molecular target: T1, human AspH (His6-AspH315–758) (Homo sapiens, UniProt Q12797)
T1 construct: N-Terminally His6-tagged human AspH315–758 (His6-AspH315–758) was produced in Escherichia coli BL21 (DE3) cells; made in house; host or cells: Escherichia coli BL21 (DE3), pET-28a(+) vector
T1 sequence (Q12797 315-758): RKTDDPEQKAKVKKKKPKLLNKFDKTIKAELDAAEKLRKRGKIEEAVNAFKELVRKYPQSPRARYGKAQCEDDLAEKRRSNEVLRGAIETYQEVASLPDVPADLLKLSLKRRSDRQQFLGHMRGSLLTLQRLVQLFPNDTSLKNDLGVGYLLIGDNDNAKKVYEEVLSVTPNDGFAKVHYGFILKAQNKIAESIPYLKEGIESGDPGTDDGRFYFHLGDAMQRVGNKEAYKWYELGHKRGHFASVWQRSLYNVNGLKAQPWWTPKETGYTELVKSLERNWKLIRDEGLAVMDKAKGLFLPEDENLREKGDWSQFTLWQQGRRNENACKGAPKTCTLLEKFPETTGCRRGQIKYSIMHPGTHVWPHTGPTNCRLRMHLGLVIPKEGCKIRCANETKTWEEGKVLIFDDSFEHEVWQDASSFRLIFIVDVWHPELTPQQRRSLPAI
Test: SPE-MS AspH inhibition assay (hFX-CP101-119 substrate hydroxylation)
Type: biochemical

[1] = AspH-inhibitor screening, 384-well Plate 1
[2] = AspH-inhibitor screening, 384-well Plate 1, substrate conversion
[3] = AspH-inhibitor screening, Plate 1-duplicate
[4] = AspH-inhibitor screening, Plate 1-duplicate, substrate conversion

Row | Plate 1 (% inhibition) [1] [%] | Plate 1 (% conversion) [2] [%] | Plate 1-duplicate (% inhibition) [3] [%] | Plate 1-duplicate (% conversion) [4] [%] | Compound | Plate 1 (% conversion) [%] | Plate 1 (% inhibition) [%] | Plate 1-duplicate (% conversion) [%] | Plate 1-duplicate (% inhibition) [%]
1 | 0.45 | 49.54 | 1.60 | 51.25 | COc1c2occc2cc2ccc(=O)oc12 [Methoxsalen] |  |  |  | 
2 | 16.85 | 41.97 | 8.68 | 47.74 | NC(=O)NO [Hydroxyurea] |  |  |  | 
3 | -51.46 | 73.51 | -47.27 | 75.48 | Cc1cnc(NC(=O)Nc2cc(Br)c(C)cc2OC[C@@H]2CNCCO2)cn1 [LY2603618_Rabusertib] |  |  |  | 
4 | 4.87 | 47.50 | 6.81 | 48.66 | CC[C@@]1(O)C(=O)OCc2c1cc1n(c2=O)Cc2cc3c(CN(C)C)c(O)ccc3nc2-1 [Topotecan hydrochloride] |  |  |  | 
5 | 1.90 | 48.87 | -4.64 | 54.34 | CN(c1ccccc1CNc1nc(Nc2ccc3c(c2)CC(=O)N3)ncc1C(F)(F)F)S(C)(=O)=O [PF 431396] |  |  |  | 
6 | 13.54 | 43.50 | 4.20 | 49.96 | CC(=O)c1c(C)c2cnc(Nc3ccc(N4CCNCC4)cn3)nc2n(C2CCCC2)c1=O [Palbociclib] |  |  |  | 
7 | 7.28 | 46.39 | 8.14 | 48.00 | Nc1nc2nc[nH]c2c(=S)[nH]1 [Thioguanine] |  |  |  | 
8 | -48.53 | 72.16 | -50.33 | 77.00 | COc1cc(Nc2c(C#N)cnc3cc(OCCCN4CCN(C)CC4)c(OC)cc23)c(Cl)cc1Cl [Bosutinib] |  |  |  | 
9 | -18.20 | 58.15 | -27.79 | 65.82 | CO[C@H]1C[C@@H]2CC[C@@H](C)[C@@](O)(O2)C(=O)C(=O)N2CCCC[C@H]2C(=O)O[C@H]([C@H](C)C[C@@H]2CC[C@@H](OCCO)[C@H](OC)C2)CC(=O)[C@H](C)/C=C(\C)[C@@H](O)[C@@H](OC)C(=O)[C@H](C)C[C@H](C)/C=C/C=C/C=C/1C [Everolimus] |  |  |  | 
10 | 1.66 | 48.98 | -3.53 | 53.79 | CCc1c2c(nc3ccc(OC(=O)N4CCC(N5CCCCC5)CC4)cc13)-c1cc3c(c(=O)n1C2)COC(=O)[C@]3(O)CC [Irinotecan] |  |  |  | 
11 | 1.86 | 48.89 | -0.91 | 52.49 | O=c1[nH]c(=O)n([C@H]2C[C@H](O)[C@@H](CO)O2)cc1C(F)(F)F [Trifluridine] |  |  |  | 
12 | -1.21 | 50.31 | 6.33 | 48.90 | COC(=O)C[C@](O)(CCCC(C)(C)O)C(=O)O[C@@H]1C(OC)=C[C@]23CCCN2CCc2cc4c(cc2[C@H]13)OCO4 [Omacetaxine mepesuccinate] |  |  |  | 
13 | -8.77 | 53.80 | -20.49 | 62.20 | CO[C@H]1C(=O)[C@]2(C)[C@@H](OC)C[C@H]3OC[C@@]3(OC(C)=O)[C@H]2[C@H](OC(=O)c2ccccc2)[C@]2(O)C[C@H](OC(=O)[C@H](O)[C@@H](NC(=O)OC(C)(C)C)c3ccccc3)C(C)=C1C2(C)C [Cabazitaxel] |  |  |  | 
14 | 74.52 | 15.34 | 67.97 | 18.33 | COCCNCc1ccc(-c2cc3nccc(Oc4ccc(NC(=S)NC(=O)Cc5ccc(F)cc5)cc4F)c3s2)nc1 [MGCD-265] |  |  |  | 
15 | -21.29 | 59.58 | -13.95 | 58.96 | NC1(c2ccc(-c3nc4ccn5c(=O)[nH]nc5c4cc3-c3ccccc3)cc2)CCC1 [MK-2206] |  |  |  | 
16 | -4.19 | 51.68 | -4.98 | 54.51 | C[C@@H](Oc1cc(-c2cnn(C3CCNCC3)c2)cnc1N)c1c(Cl)ccc(F)c1Cl [PF-2341066 (Crizotinib)] |  |  |  | 
17 | 3.84 | 47.98 | 5.27 | 49.43 | CC(C)Cn1cnc2c(N)nc3ccccc3c21 [Imiquimod] |  |  |  | 
18 | 10.44 | 44.93 | -5.64 | 54.84 | CN(C)C[C@@H]1CCn2cc(c3ccccc32)C2=C(C(=O)NC2=O)c2cn(c3ccccc23)CCO1.CS(=O)(=O)O [LY 333531 mesylate_Ruboxistaurin] |  |  |  | 
19 | -2.16 | 50.75 | -9.02 | 56.51 | CC(C)C[C@H](NC(=O)[C@H](CCc1ccccc1)NC(=O)CN1CCOCC1)C(=O)N[C@@H](Cc1ccccc1)C(=O)N[C@@H](CC(C)C)C(=O)[C@@]1(C)CO1 [Carfilzomib] |  |  |  | 
20 | -42.78 | 69.51 | -39.63 | 71.70 | Cc1cc(Nc2ncc(Cl)c(Nc3ccccc3S(=O)(=O)C(C)C)n2)c(OC(C)C)cc1C1CCNCC1 [Ceritinib] |  |  |  | 

The remaining lines, values behind:

Row | Compound | Plate 1 (% inhibition) [1] [%] | Plate 1 (% conversion) [2] [%] | Plate 1-duplicate (% inhibition) [3] [%] | Plate 1-duplicate (% conversion) [4] [%] | Plate 1 (% conversion) [%] | Plate 1 (% inhibition) [%] | Plate 1-duplicate (% conversion) [%] | Plate 1-duplicate (% inhibition) [%]
21 | COc1cccc2c1C(=O)c1c(O)c3c(c(O)c1C2=O)C[C@@](O)(C(=O)CO)C[C@@H]3O[C@H]1C[C@H](N)[C@@H](O)[C@H](C)O1 [Epirubicin hydrochloride] | -8.14 | 53.51 | -28.05 | 65.95 |  |  |  | 
22 | C=C1C[C@@H]2[C@H](CC[C@]3(C)C(=O)CC[C@@H]23)[C@@]2(C)C=CC(=O)C=C12 [Exemestane] | -2.81 | 51.05 | 2.16 | 50.97 |  |  |  | 
23 | O=C1CN2Cc3c(ccc(Cl)c3Cl)N=C2N1 [Anagrelide] | 0.57 | 49.49 | 0.27 | 51.91 |  |  |  | 
24 | O=C(O)CCCc1ccc(N(CCCl)CCCl)cc1 [Chlorambucil] | 2.87 | 48.43 | 1.52 | 51.29 |  |  |  | 
25 | Nc1cc(C(F)(F)F)c(-c2cc(N3CCOCC3)nc(N3CCOCC3)n2)cn1 [BKM-120_Buparlisib] | 1.72 | 48.96 | -1.07 | 52.57 |  |  |  | 
26 | CC/C(=C(\c1ccc(O)cc1)c1ccc(OCCN(C)C)cc1)c1ccccc1 [4-hydroxytamoxifen] | -45.98 | 70.98 | -42.66 | 73.20 |  |  |  | 
27 | Bleomycin sulfate | 98.37 | 4.32 | 96.60 | 4.13 |  |  |  | 
28 | Nc1nc(Cl)nc2c1ncn2[C@@H]1O[C@H](CO)[C@@H](O)[C@@H]1F [Clofarabine] | 6.71 | 46.65 | 3.66 | 50.22 |  |  |  | 
29 | AT 101 | 102.80 | 2.28 | 99.60 | 2.64 |  |  |  | 
30 | COc1cc2c(cc1O)CC[C@@H]1[C@@H]2CC[C@]2(C)[C@@H](O)CC[C@@H]12 [2-methoxyestradiol (Panzem)] | 5.63 | 47.15 | 3.64 | 50.24 |  |  |  | 
31 | CCC1(c2ccc(N)cc2)CCC(=O)NC1=O (stereo not shown) [Aminoglutethimide] | 11.22 | 44.57 | 9.40 | 47.38 |  |  |  | 
32 | C1CN1c1nc(N2CC2)nc(N2CC2)n1 [Triethylenemelamine] |  |  |  |  | 46.54 | 6.96 | 50.74 | 2.63
33 | N.N.O=C([O-])C1(C(=O)[O-])CCC1.[Pt+2] [Carboplatin] | 3.32 | 48.22 | 9.11 | 47.52 |  |  |  | 
34 | N[C@@H](Cc1ccc(N(CCCl)CCCl)cc1)C(=O)O [Melphalan] | 9.41 | 45.40 | 3.88 | 50.12 |  |  |  | 
